Measured values from the supplement of paper PMC11451515.

How the values were obtained:
Settings in all cases: 48 h
NOMO1 [1] = experiment: AUC of viability dose-response curve (% viability x log10 dose units); higher = less sensitive
How it was run: (§1)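 Leukemia cells adapted to each medium were seeded in 1536-well plates (500 or 1000 cells/well) and given library compounds in DMSO for 48 h at 37°C. The 11 threefold doses spanned 47 μM to 0.79 nM, and CellTiter-Glo One luminescence was normalised per plate to DMSO and cell-free wells before four-parameter log-logistic fitting on log10 dose. Area under the curve was integrated with the trapezoidal rule, scaling curves above full viability and removing curves that failed quality control.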

P12-Ichikawa [2] = experiment: as above
How it was run: as §1

SEM cells [3] = experiment: as above
How it was run: as §1

SEM cells [4] = experiment: cell viability relative to DMSO control; higher = less cytotoxic
How it was run: (§2)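 Viability, reported as a per-plate percentage of DMSO wells with cell-free wells as background, came from CellTiter-Glo One luminescence. Reading took place after 48 h at 37°C. Before that, NOMO1 or SEM (500 cells/well) or P12-Ichikawa (1000 cells/well) leukemia cells, adapted for at least four passages in each medium, were seeded in 1536-well plates (5 μl) and pin-dosed with library compounds in DMSO, 47 μM to 0.79 nM over 11 threefold points.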

NOMO1 [5] = experiment: as above
How it was run: as §2

P12-Ichikawa [6] = experiment: as above
How it was run: as §2

CC[S+](=O)([O-])N1CC(CC#N)(n2cc(-c3ncnc4[nH]ccc34)cn2)C1
AUC of viability dose-response curve
Settings	NOMO1 [1]	P12-Ichikawa [2]	SEM cells [3]
HPLM + 10% dialyzed FBS	441	452	449
RPMI 5 mM glucose + 10% FBS	451	454	457
RPMI 5 mM glucose + 10% dialyzed FBS	471	443	450

CNC(=O)N1\N=C(\C2=CC=C(N)C=C2)C3=CC4=C(OCO4)C=C3CC1C (configuration not stated)
cell viability [%], SEM cells [4]
Settings	HPLM + 10% dialyzed FBS	RPMI 5 mM glucose + 10% FBS
0.000781 µM	111	120
0.00234 µM	113	134
0.00702 µM	130	124
0.0211 µM	121	145
0.0632 µM	142	138
0.19 µM	133	134
0.569 µM	122	132
1.71 µM	129	129
5.12 µM	98.3	79.9
15.4 µM	43.8	47.1
46.1 µM	8.25	8.13

AUC of viability dose-response curve
Settings	NOMO1 [1]	P12-Ichikawa [2]	SEM cells [3]
HPLM + 10% dialyzed FBS	440	449	413
RPMI 5 mM glucose + 10% FBS	451	447	400
RPMI 5 mM glucose + 10% dialyzed FBS	449	449	392

CN(Cc1cc(Br)cc(Br)c1N)C1CCCCC1
SEM cells [4], HPLM + 10% dialyzed FBS
Settings	cell viability [%]
0.000781 µM	99.1
0.00234 µM	122
0.00702 µM	123
0.0211 µM	130
0.0632 µM	104
0.19 µM	133
0.569 µM	104
1.71 µM	133
5.12 µM	121
15.4 µM	130
46.1 µM	108

AUC of viability dose-response curve
Settings	NOMO1 [1]	P12-Ichikawa [2]	SEM cells [3]
HPLM + 10% dialyzed FBS	444	468	472
RPMI 5 mM glucose + 10% FBS	464	471	461
RPMI 5 mM glucose + 10% dialyzed FBS	448	470	441

CC(=O)[C@]1(O)Cc2c(O)c3c(c(O)c2[C@@H](O[C@H]2C[C@H](N)[C@H](O)[C@H](C)O2)C1)C(=O)c1ccccc1C3=O
cell viability [%], SEM cells [4]
Settings	HPLM + 10% dialyzed FBS	RPMI 5 mM glucose + 10% FBS	RPMI 5 mM glucose + 10% dialyzed FBS
0.000781 µM	118	104	126
0.00234 µM	127	117	110
0.00702 µM	123	113	116
0.0211 µM	124	104	125
0.0632 µM	128	97.8	113
0.19 µM	119	101	97.1
0.569 µM	98.8	80.3	90.3
1.71 µM	34.5	18.9	31.2
5.12 µM	8.24	7.45	6.01
15.4 µM	7.58	6.93	5.83
46.1 µM	6.23	4.81	4.8

AUC of viability dose-response curve
Settings	HPLM + 10% dialyzed FBS	RPMI 5 mM glucose + 10% FBS	RPMI 5 mM glucose + 10% dialyzed FBS
NOMO1 [1]	364	367	374
SEM cells [3]	320	313	313

C=C1C(=O)OC2/C=C(/C)CC/C=C(/C)CCC12 (configuration not stated)
AUC of viability dose-response curve
Settings	NOMO1 [1]	P12-Ichikawa [2]	SEM cells [3]
HPLM + 10% dialyzed FBS	444	454	455
RPMI 5 mM glucose + 10% FBS	463	442	449
RPMI 5 mM glucose + 10% dialyzed FBS	457	448	446

CC1=CC=C(C=C1)\C2=N\C3=CC=C(Cl)C=C3OC2
AUC of viability dose-response curve
Settings	NOMO1 [1]	P12-Ichikawa [2]	SEM cells [3]
HPLM + 10% dialyzed FBS	451	439	427
RPMI 5 mM glucose + 10% FBS	439	424	418
RPMI 5 mM glucose + 10% dialyzed FBS	457	440	392

CO/N=C(/C(=O)N[C@@H]1C(=O)N2C(C(=O)O)=C(CSC(=O)c3ccco3)CS[C@H]12)c1csc(N)n1
cell viability [%]
Settings	NOMO1 [5]	P12-Ichikawa [6]	SEM cells [4]
HPLM + 10% dialyzed FBS, 0.000781 µM	81.5	100	62.8
HPLM + 10% dialyzed FBS, 0.00234 µM	106	108	72.5
HPLM + 10% dialyzed FBS, 0.00702 µM	116	112	71.3
HPLM + 10% dialyzed FBS, 0.0211 µM	102	119	68.5
HPLM + 10% dialyzed FBS, 0.0632 µM	113	109	77.7
HPLM + 10% dialyzed FBS, 0.19 µM	103	111	76.5
HPLM + 10% dialyzed FBS, 0.569 µM	109	116	82.3
HPLM + 10% dialyzed FBS, 1.71 µM	85.5	118	77.6
HPLM + 10% dialyzed FBS, 5.12 µM	64.8	113	76.9
HPLM + 10% dialyzed FBS, 15.4 µM	53	109	88.4
HPLM + 10% dialyzed FBS, 46.1 µM	48.8	110	74.8
RPMI 5 mM glucose + 10% FBS, 0.000781 µM	89.4	98.1	77.5
RPMI 5 mM glucose + 10% FBS, 0.00234 µM	104	100	86.9
RPMI 5 mM glucose + 10% FBS, 0.00702 µM	99.4	117	89.6
RPMI 5 mM glucose + 10% FBS, 0.0211 µM	98.6	107	91.3
RPMI 5 mM glucose + 10% FBS, 0.0632 µM	103	105	97.8
RPMI 5 mM glucose + 10% FBS, 0.19 µM	103	106	102
RPMI 5 mM glucose + 10% FBS, 0.569 µM	109	98.6	106
RPMI 5 mM glucose + 10% FBS, 1.71 µM	92.5	104	105
RPMI 5 mM glucose + 10% FBS, 5.12 µM	90.9	98.9	90.6
RPMI 5 mM glucose + 10% FBS, 15.4 µM	73.8	103	108
RPMI 5 mM glucose + 10% FBS, 46.1 µM	77.2	96.2	103
RPMI 5 mM glucose + 10% dialyzed FBS, 0.000781 µM	82.9	95.6	89.1
RPMI 5 mM glucose + 10% dialyzed FBS, 0.00234 µM	97.4	104	93.8
RPMI 5 mM glucose + 10% dialyzed FBS, 0.00702 µM	99.9	112	107
RPMI 5 mM glucose + 10% dialyzed FBS, 0.0211 µM	111	108	117
RPMI 5 mM glucose + 10% dialyzed FBS, 0.0632 µM	104	112	93
RPMI 5 mM glucose + 10% dialyzed FBS, 0.19 µM	101	109	107
RPMI 5 mM glucose + 10% dialyzed FBS, 0.569 µM	111	104	118
RPMI 5 mM glucose + 10% dialyzed FBS, 1.71 µM	103	103	111
RPMI 5 mM glucose + 10% dialyzed FBS, 5.12 µM	82.5	102	120
RPMI 5 mM glucose + 10% dialyzed FBS, 15.4 µM	81.3	107	123
RPMI 5 mM glucose + 10% dialyzed FBS, 46.1 µM	58.5	104	113

AUC of viability dose-response curve
Settings	HPLM + 10% dialyzed FBS	RPMI 5 mM glucose + 10% FBS	RPMI 5 mM glucose + 10% dialyzed FBS
NOMO1 [1]	413	453	449
P12-Ichikawa [2]	472	464	476
